From the NIST ThermoML archive (doi:10.1016/j.jct.2018.09.024)
Numbers after ± are expanded uncertainties.

Tests used:
[1] = molar heat capacity at constant pressure; details: 101.33 kPa, Liquid, DSC
[2] = 101.33 kPa, Liquid, Laser flash apparatus

Row | SMILES | molar heat capacity at constant pressure ([1]; 303.15 K) [J/K/mol] | molar heat capacity at constant pressure ([1]; 313.15 K) [J/K/mol] | molar heat capacity at constant pressure ([1]; 323.15 K) [J/K/mol] | molar heat capacity at constant pressure ([1]; 333.15 K) [J/K/mol] | molar heat capacity at constant pressure ([1]; 343.15 K) [J/K/mol] | molar heat capacity at constant pressure ([1]; 353.15 K) [J/K/mol] | molar heat capacity at constant pressure ([1]; 363.15 K) [J/K/mol] | molar heat capacity at constant pressure ([1]; 373.15 K) [J/K/mol] | thermal diffusivity ([2]; 303.15 K) [m2/s] | thermal diffusivity ([2]; 313.15 K) [m2/s] | thermal diffusivity ([2]; 323.15 K) [m2/s] | thermal diffusivity ([2]; 333.15 K) [m2/s] | thermal diffusivity ([2]; 343.15 K) [m2/s] | thermal diffusivity ([2]; 353.15 K) [m2/s] | thermal diffusivity ([2]; 363.15 K) [m2/s] | thermal diffusivity ([2]; 373.15 K) [m2/s] | thermal diffusivity ([2]; 383.15 K) [m2/s] | thermal diffusivity ([2]; 393.15 K) [m2/s] | thermal diffusivity ([2]; 403.15 K) [m2/s] | also measured
1 | CCCCCCCCCC(=O)OC [methyl decanoate] | 384.7 ± 16 | 387.6 ± 16 | 391.8 ± 16 | 396.7 ± 16 | 401.9 ± 16 | 407.3 ± 16 | 412.4 ± 17 | 417.2 ± 17 | 8.1e-08 ± 4.3e-09 | 7.99e-08 ± 4.3e-09 | 7.87e-08 ± 4.2e-09 | 7.75e-08 ± 4.1e-09 | 7.64e-08 ± 4.1e-09 | 7.52e-08 ± 4e-09 | 7.4e-08 ± 4e-09 | 7.28e-08 ± 3.9e-09 | 7.17e-08 ± 3.8e-09 | 7.05e-08 ± 3.8e-09 | 6.93e-08 ± 3.7e-09 | –
2 | CCCCCCCCCCCC(=O)OC [methyl dodecanoate] | 449 ± 18 | 452.8 ± 18 | 457.4 ± 19 | 462.6 ± 19 | 468.4 ± 19 | 474.5 ± 19 | 480.7 ± 20 | 486.8 ± 20 | 8.27e-08 ± 4.4e-09 | 8.15e-08 ± 4.3e-09 | 8.03e-08 ± 4.3e-09 | 7.91e-08 ± 4.2e-09 | 7.79e-08 ± 4.2e-09 | 7.67e-08 ± 4.1e-09 | 7.55e-08 ± 4e-09 | 7.43e-08 ± 4e-09 | 7.3e-08 ± 3.9e-09 | 7.18e-08 ± 3.8e-09 | 7.06e-08 ± 3.8e-09 | thermal diffusivity ([2]; 413.15 K): 6.94e-08 ± 3.7e-09 m2/s; thermal diffusivity ([2]; 423.15 K): 6.82e-08 ± 3.7e-09 m2/s
3 | CCCCCCC(=O)OC [methyl heptanoate] | 289.2 ± 12 | 292.5 ± 12 | 296.2 ± 12 | 300.1 ± 12 | 304.3 ± 12 | 308.6 ± 12 | 312.8 ± 13 | 316.9 ± 13 | 7.82e-08 ± 4.2e-09 | 7.71e-08 ± 4.1e-09 | 7.59e-08 ± 4.1e-09 | 7.48e-08 ± 4e-09 | 7.36e-08 ± 3.9e-09 | 7.25e-08 ± 3.9e-09 | 7.14e-08 ± 3.8e-09 | – | – | – | – | –
4 | CCCCCC(=O)OC [methyl hexanoate] | 246.4 ± 10 | 248.8 ± 10 | 251.5 ± 10 | 254.6 ± 10 | 257.9 ± 10 | 261.5 ± 11 | 265.5 ± 11 | 269.6 ± 11 | 7.76e-08 ± 4.1e-09 | 7.66e-08 ± 4.1e-09 | 7.56e-08 ± 4e-09 | 7.46e-08 ± 4e-09 | – | – | – | – | – | – | – | –
5 | CCCCCCCCC(=O)OC [methyl nonanoate] | 351.7 ± 14 | 354.7 ± 14 | 358.6 ± 15 | 363.1 ± 15 | 367.9 ± 15 | 372.8 ± 15 | 377.6 ± 15 | 382 ± 16 | 8.01e-08 ± 4.3e-09 | 7.89e-08 ± 4.2e-09 | 7.78e-08 ± 4.2e-09 | 7.66e-08 ± 4.1e-09 | 7.54e-08 ± 4e-09 | 7.43e-08 ± 4e-09 | 7.31e-08 ± 3.9e-09 | 7.19e-08 ± 3.9e-09 | 7.08e-08 ± 3.8e-09 | – | – | –
6 | CCCCCCCC(=O)OC [methyl octanoate] | 316.6 ± 13 | 320.5 ± 13 | 324.4 ± 13 | 328.7 ± 13 | 333.2 ± 14 | 337.8 ± 14 | 342.8 ± 14 | 347 ± 14 | 7.92e-08 ± 4.2e-09 | 7.81e-08 ± 4.2e-09 | 7.69e-08 ± 4.1e-09 | 7.57e-08 ± 4e-09 | 7.46e-08 ± 4e-09 | 7.34e-08 ± 3.9e-09 | 7.22e-08 ± 3.9e-09 | 7.11e-08 ± 3.8e-09 | 6.99e-08 ± 3.7e-09 | – | – | –
7 | CCCCCCCCCCC(=O)OC [methyl undecanoate] | 411.4 ± 17 | 415.9 ± 17 | 420.9 ± 17 | 426.1 ± 17 | 431.4 ± 18 | 436.7 ± 18 | 441.8 ± 18 | 446.5 ± 18 | 8.22e-08 ± 4.4e-09 | 8.1e-08 ± 4.3e-09 | 7.98e-08 ± 4.3e-09 | 7.86e-08 ± 4.2e-09 | 7.74e-08 ± 4.1e-09 | 7.62e-08 ± 4.1e-09 | 7.5e-08 ± 4e-09 | 7.38e-08 ± 4e-09 | 7.26e-08 ± 3.9e-09 | 7.14e-08 ± 3.8e-09 | 7.02e-08 ± 3.8e-09 | thermal diffusivity ([2]; 413.15 K): 6.9e-08 ± 3.7e-09 m2/s; thermal diffusivity ([2]; 423.15 K): 6.78e-08 ± 3.6e-09 m2/s
